Data published in patent publication US20130101582A1, “Tiki1 and Tiki2, Wnt Inhibitors” (CHILDREN'S MEDICAL CENTER CORPORATION, priority 2010, published 2013).

B1: Wnt3a: Wnt ligand added to STF reporter cells (protein)
chain: SYPIWWSLAVGPQYSSLGSQPILCASIPGLVPKQLRFCRNYVEIMPSVAEGIKIGIQECQHQFRGRRWNCTTVHDSLAIFGPVLDKATRESAFVHAIASAGVAFAVTRSCAEGTAAICGCSSRHQGSPGKGWKWGGCSEDIEFGGMVSREFADARENRPDARSAMNRHNNEAGRQAIASHMHLKCKCHGLSGSCEVKTCWWSQPDFRAIGDFLKDKYDSASEMVVEKHRESRGWVETLRPRYTYFKVPTERDLVYYEASPNFCEPNPETGSFGTRDRTCNVSSHGIDGCDLLCCGRGHNARAERRREKCRCVFHWCCYVSCQECTRVYDVHTCK

Experiments:
nuclear beta-catenin = assay: Wnt-induced nuclear beta-catenin accumulation in Xwnt8-responding animal cap cells; type: in vivo, Xenopus; settings: stage 9 animal cap cells neighbouring Xwnt8-expressing cells; 200 pg mRNA
Experimental: FIGS. 7A-C are each schematics with accompanying bar graphs showing that Tiki1 inhibits Wnt/β-catenin signaling in both Wnt-producing and Wnt-responding cells. 7A, Tiki1 acts in Xwnt8-producing cells. Xwnt8 mRNA (20 pg) was co-injected with Tiki1 or LDLR mRNA (100 pg) into a single blastomere at the 8-cell stage, while S01234-Luciferase (140 pg) plus TK-Renilla (1.25 pg) reporter DNAs were injected into a neighboring blastomere. 7B, Tiki1 acts in Xwnt8-responding cells. S01234-Luciferase and TK-Renilla reporter DNAs were co-injected with Tiki1 or LDLR mRNA in a single blastomere, while Xwnt8 mRNA was injected into a neighboring blastomere. Luciferase readings were normalized to Renilla. 7C, Tiki1 reduces nuclear beta-catenin levels in Xwnt8-responding cells. […] Only cells within the distance of five cell bodies from Xwnt8-expressing cells were counted in any given field. […]
Secondly Wnt-induced nuclear beta-catenin accumulation was monitored. […] In confocal microscopy Xwnt8-expressing cells were traced by RFP (red), whereas Wnt-responding cells that expressed Tiki1 or LDLR were traced by FLD (green), and naive cells descended from uninjected blastomeres lacked green or red fluorescence. […]

[1] = tested on: Super-TOPFLASH (STF) luciferase reporter; assay: Super-TOPFLASH (STF) luciferase reporter induction in STF cells; type: cell-based; settings: 6-hour treatment; not shown
Experimental: A high throughput screen (HTS) is used to identify compounds that enhance LRP5/6 signaling as potential therapeutics for osteoporosis or cellular proliferative disorders. We employ a Wnt responsive cell line carrying a Super-TOPFLASH (STF) luciferase reporter (Wnt-responsive) (Major et al. Science. 2007. 316:1043-6). These STF cells grow as an adherent monolayer making them ideally suited for 384-well-plate screening format. […] Different conditions are tested and an acceptable z′ score of 0.5 or above (z′ measures HTS quality and reproducibility (Zhang et al. J Biomol Screen. 1999. 4:67-73)) is achieved.

Molecule	Cells displaying nuclear beta-catenin (nuclear beta-catenin)	Induction of the STF reporter [1]
LDLR: negative control, expressed from injected LDLR mRNA	80%	
B1		30-40 folds
